According to ChEMBL document CHEMBL5149964, “Discovery and development of selective aldehyde dehydrogenase 1A1 (ALDH1A1) inhibitors” (Eur J Med Chem, 2021):
Each block holds one compound with its values, some of them ahead of it.

Key:
A549 = assay: Anticancer activity against human A549 cells assessed as inhibition of cell growth by MTT assay; assay type: functional, cell-based
TOV21G = assay: Anticancer activity against human TOV-21G-RT cells assessed as inhibition of cell growth; assay type: functional, cell-based
NCI/ADR-RES = assay: cells; settings: Homo sapiens
[1] = target: T1, Aldehyde dehydrogenase 1A1 (Homo sapiens, UniProt P00352); assay: Inhibition of human ALDH1A1 using propionaldehyde as substrate in presence of NAD+ by UV-visible spectrophometric analysis
T1 sequence (P00352 whole entry): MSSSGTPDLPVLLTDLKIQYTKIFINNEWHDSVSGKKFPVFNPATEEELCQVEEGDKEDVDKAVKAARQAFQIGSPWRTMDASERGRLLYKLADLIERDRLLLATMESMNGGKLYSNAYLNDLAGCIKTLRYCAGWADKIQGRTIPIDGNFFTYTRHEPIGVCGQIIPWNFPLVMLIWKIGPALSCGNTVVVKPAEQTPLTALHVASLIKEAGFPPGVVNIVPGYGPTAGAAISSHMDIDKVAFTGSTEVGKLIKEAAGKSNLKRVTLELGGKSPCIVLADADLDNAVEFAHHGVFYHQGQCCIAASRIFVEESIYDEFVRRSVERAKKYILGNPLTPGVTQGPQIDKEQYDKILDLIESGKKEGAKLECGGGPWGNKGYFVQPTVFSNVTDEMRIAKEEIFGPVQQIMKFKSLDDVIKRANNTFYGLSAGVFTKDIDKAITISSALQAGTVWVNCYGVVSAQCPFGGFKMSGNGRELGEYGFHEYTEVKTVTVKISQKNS

[2] = target: T1, Aldehyde dehydrogenase 1A1; assay: Inhibition of human ALDH1A1 expressed in Escherichia coli BL21(DE3) pLys cell in presence of NAD+ by fluorescence based assay
[3] = target: T2, Retinaldehyde dehydrogenase 3 (Homo sapiens, UniProt P47895); assay: Inhibition of human ALDH1A3 expressed in Escherichia coli BL21(DE3) pLys cell in presence of NAD+ by fluorescence based assay
T2 sequence (P47895 whole entry): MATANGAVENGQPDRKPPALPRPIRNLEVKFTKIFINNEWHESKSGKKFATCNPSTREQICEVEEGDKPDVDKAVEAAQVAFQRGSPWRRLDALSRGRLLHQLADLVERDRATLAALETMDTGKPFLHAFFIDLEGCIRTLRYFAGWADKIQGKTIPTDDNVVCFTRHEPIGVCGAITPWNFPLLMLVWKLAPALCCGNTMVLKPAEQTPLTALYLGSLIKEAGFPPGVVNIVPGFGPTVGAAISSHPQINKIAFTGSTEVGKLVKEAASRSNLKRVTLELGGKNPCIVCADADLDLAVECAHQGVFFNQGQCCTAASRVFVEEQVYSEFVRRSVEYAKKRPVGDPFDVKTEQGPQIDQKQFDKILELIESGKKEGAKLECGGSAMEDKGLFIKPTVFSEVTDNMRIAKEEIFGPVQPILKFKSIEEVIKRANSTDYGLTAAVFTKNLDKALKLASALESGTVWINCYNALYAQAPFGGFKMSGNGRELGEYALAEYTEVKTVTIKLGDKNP

[4] = target: T1, Aldehyde dehydrogenase 1A1; assay: Inhibition of ALDH1A1 (unknown origin)
[5] = target: T3, Aldehyde dehydrogenase 1A1 (Homo sapiens) (UniProt P00352); assay: Inhibition of human ALDH1A1 assessed as fluorescent enhancement checked in presence of NAD+ by fluorescence based assay
T3 sequence (whole entry): T1 sequence (P00352 whole entry)

IC50 (A549): 28 nM
Compound: CCCCCC(=O)N1C[C@@H](CCl)c2c1ccc1ccccc21

IC50 (NCI/ADR-RES): 206 nM
Compound: COc1cccc2c1C(=O)c1c(O)c3c(c(O)c1C2=O)C[C@@](O)(C(=O)CO)C[C@@H]3O[C@H]1C[C@H](N)[C@H](O)[C@H](C)O1 [DOXORUBICIN]
IC50 (TOV21G): 373 nM

IC50 [1]: 210 nM
Compound: CC(C)CCn1c(CN2CCN(C(N)=O)CC2)nc2c1c(=O)n(C)c(=O)n2C

IC50 [2]: 5400 nM | IC50 [3]: 23000 nM
Compound: O=C(O)CN1C(=O)S/C(=C/c2ccc(OCc3nc4ccccc4c(=O)n3-c3ccccc3)cc2)C1=O

IC50 [4]: 440 nM
Compound: CCC(SC1=Nc2ccccc2C2=NC(C(C)C)C(=O)N12)C(=O)Nc1ccccc1 (centres undefined)

Activity [5]: 20
Compound: Cc1cc(C=O)ccc1-c1c2cc(F)c(=O)cc-2oc2cc(O)c(F)cc12

IC50 [4]: 390 nM
Compound: CCC(SC1=Nc2ccccc2C2=NC(C(C)CC)C(=O)N12)C(=O)N1CCc2ccccc21 (centres undefined)

IC50 [4]: 570 nM
Compound: CCC(SC1=Nc2ccccc2C2=NC(CC(C)C)C(=O)N12)C(=O)Nc1ccccc1 (centres undefined)

IC50 (NCI/ADR-RES): 181 nM
Compound: CC(=O)O[C@H]1C(=O)[C@@]2(C)[C@H]([C@H](OC(=O)c3ccccc3)[C@]3(O)C[C@H](OC(=O)[C@H](O)[C@@H](NC(=O)c4ccccc4)c4ccccc4)C(C)=C1C3(C)C)[C@]1(OC(C)=O)CO[C@@H]1C[C@@H]2O [PACLITAXEL]
IC50 (TOV21G): 264 nM

IC50 [4]: 840 nM
Compound: CCC(SC1=Nc2ccccc2C2=NC(C(C)C)C(=O)N12)C(=O)N1CCc2ccccc21 (centres undefined)

IC50 [4]: 1180 nM
Compound: CCC(SC1=Nc2ccccc2C2=NC(CC(C)C)C(=O)N12)C(=O)N1CCc2ccccc21 (centres undefined)
